Patent US4551532A, “Ethylene glycol derivatives having anti-protozoan, anti-fungal and anti-tumor activity” (priority 1980, dated 1985)
In brackets after ≈: the same amount, converted by molar mass. Like-named read-outs stand apart in the source and are kept apart here.

Assays:
Saccharomyces cerevisiae = experiment: antifungal activity, serial dilution method; type: cell-based
Penicillium = experiment: antifungal activity, serial dilution method; type: cell-based, Penicillium niger
[1] = tested on: Tetrahymena pyriformis W strain; experiment: antiprotozoal activity, broth dilution method; type: cell-based; settings: 28° C., 44-48 hours, pH 7.0, read-out: Growth inhibition MIC Tetrahymena
Aspergillus niger = experiment: antifungal activity, serial dilution method; type: cell-based
Botrytis cinerea = experiment: antifungal activity, serial dilution method; type: cell-based; settings: Botrytis cinerea (gray mold); 1% glucose-bouillon agar
Hamigera = experiment: antimycotic activity, paper disk inhibition circle; type: cell-based; settings: 48 h; 8 mm paper disk, 3 mg/ml, 37° C., 2 days; read-out: Growth inhibition Hamigera
Procedure: (§1) Referring to the antimycotic activity presented in Table 2, Cryptoccoccus neoformans and others were used as the test microbes, a paper disk (8 mm in diameter) was immersed in an aqueous solution of each test compound having a concentration of 3 mg/ml, air dried and placed on an agar medium, then incubation was conducted at 37° C. for 2 days, and the inhibition circle was measured. When the diameter of the inhibition circle was not larger than 8 mm, 8-10 mm, 10-20 mm, or larger than 20 mm, the activity was judged as -, ±, + or ++, respectively.

Cryptococcus neoformans = experiment: antimycotic activity, paper disk inhibition circle; type: cell-based; settings: 48 h, 8 mm paper disk, 3 mg/ml, 37° C., 2 days, read-out: Growth inhibition Cryptococcus
Procedure: as §1

Rhodotorula = experiment: antimycotic activity, paper disk inhibition circle; type: cell-based; settings: 48 h, 8 mm paper disk, 3 mg/ml, 37° C., 2 days, read-out: Growth inhibition Rhodotorula
Procedure: as §1

Leptosphaeria salvinii = experiment: antifungal activity, serial dilution method; type: cell-based; settings: Nakataea oryzae
Cochliobolus miyabeanus = experiment: antifungal activity, serial dilution method; type: cell-based; settings: Bipolaris oryzae
[2] = tested on: Colletotrichum lagenarium; experiment: antifungal activity, serial dilution method; type: cell-based; settings: Colletotrichum orbiculare
Sclerotinia sclerotiorum = experiment: antifungal activity, serial dilution method; type: cell-based; settings: Sclerotinia sclerotiorum (kidney bean stem rot); 1% glucose-bouillon agar
Pyricularia oryzae = experiment: microbe, parasite or virus in culture; type: cell-based
[3] = tested on: human myelocytic leukemia cells HL-60; experiment: growth inhibiting effect (IG effect) on HL-60; type: cell-based; settings: HL-60, 120 h, 5 day culture, read-out: IG effect on HL-60 GD50
[4] = tested on: mouse spontaneous myelocytic leukemia cells MI (resistant clone); experiment: cell proliferation inhibiting activity against MI cells; type: cell-based; settings: read-out: cell proliferation inhibiting activity (GD50 value)
CDF1 mice = experiment: toxicity in CDF1 mice; type: in vivo, mouse; settings: intraperitoneal 100 mg/kg, observation period one week
Procedure: The compounds of this invention are of relatively low toxicity. For example, the compound of Example 7 causes no deaths in CDF1 mice even at an intraperitoneal dose of 100 mg/kg (observation period: one week). The hemolytic activity of these compounds is also low in general. For example, in a hemolysis test (with human erythrocytes) by the method of Gottfried et al. [J. Lipid Research, 4, 57 (1963)], the 50% hemolytic concentration of the compound of Example 15 was about 10 μg/ml.

[5] = tested on: Rauscher virus-induced promyelocytic leukemia cells R453; experiment: cell proliferation inhibiting activity against R453 cells; type: cell-based; settings: Mus musculus, read-out: cell proliferation inhibiting activity (GD50 value)
[6] = Saccharomyces cerevisiae (brewer's yeast), 1% glucose-bouillon agar, read-out: MIC
[7] = Penicillium niger (blue mold), 1% glucose-bouillon agar, read-out: MIC
[8] = Aspergillus niger (black mold), 1% glucose-bouillon agar, read-out: MIC
[9] = Leptosphaeria salvinii (rice stem rot), 1% glucose-bouillon agar, read-out: MIC
[10] = Colletotrichum lagenarium (cucumber anthracnose), 1% glucose-bouillon agar, read-out: MIC

SMILES | MIC [1] | MIC (Aspergillus niger; [8]) | MIC (Botrytis cinerea) | zone of inhibition at 3000 µg/mL (Cryptococcus neoformans) | MIC (Leptosphaeria salvinii; [9]) | MIC (Cochliobolus miyabeanus) | MIC [2, 10] | MIC (Sclerotinia sclerotiorum) | MIC (Pyricularia oryzae) | further results
CCCCCCCCCCCCOCCOCCOCCOP(=O)([O-])OCC[n+]1ccccc1 [Example 16, 3,6,9-Trioxaheneicosanyl 2-pyridinioethyl phosphate] | > 4 µg/mL | 25 µg/mL | 12.5 µg/mL | > 20 mm | 25 µg/mL | 25 µg/mL | 12.5 µg/mL | 50 µg/mL | 25 µg/mL | MIC (Saccharomyces cerevisiae; [6]): 50 µg/mL; MIC (Penicillium; [7]): 12.5 µg/mL; zone of inhibition at 3000 µg/mL (Hamigera): 10 to 20 mm; zone of inhibition at 3000 µg/mL (Rhodotorula): 10 to 20 mm
CCCCCCCCCCCCCCCCCCOCCOCCOP(=O)([O-])OCC[N+](C)(C)C [Example 18, 3,6-Dioxatetracoxyl 2-trimethylammonioethyl phosphate] | ≥ 4 µg/mL | > 100 µg/mL | 25 µg/mL | 10 to 20 mm |  | > 100 µg/mL | > 100 µg/mL | > 100 µg/mL | 12.5 µg/mL | MIC (Penicillium; [7]): > 100 µg/mL; MIC (Leptosphaeria salvinii): 12.5 µg/mL
CCCCCCCCCCCCCCOCCOCCOP(=O)(O)OCCN [Example 24, 3,6-Dioxaeicosyl 2-aminoethyl phosphate] | 1 to 2 µg/mL | 12.5 µg/mL | 25 µg/mL | 10 to 20 mm | > 100 µg/mL | 100 µg/mL | 25 µg/mL | 50 µg/mL | 25 µg/mL | MIC (Penicillium; [7]): 6.25 µg/mL
CCCCCCCCCCCCOCCOCCOCCOCCOP(=O)(O)OCCN [Example 14, 3,6,9,12-Tetraoxatetracosyanyl 2-aminoethyl phosphate] | 4 µg/mL |  |  | 10 to 20 mm |  |  |  |  |  | zone of inhibition at 3000 µg/mL (Hamigera): 10 to 20 mm; zone of inhibition at 3000 µg/mL (Rhodotorula): 10 to 20 mm
CCCCCCCC/C=C\CCCCCCCCOCCOCCOCCOCCOP(=O)(O)OCCN [Example 10, 3,6,9,12-Tetraoxatriacont-21(Z)-enyl 2-aminoethyl phosphate] | > 4 µg/mL |  |  | 10 to 20 mm |  |  |  |  |  | IC50 [3]: 1 to 2 µg/mL
CCCCCCCC/C=C\CCCCCCCCOCCOCCOP(=O)(O)OCCNC(C)(C)C [Example 8, 3,6-Dioxatetracos-15(Z)-enyl 2-tert-butylaminoethyl phosphate] | > 4 µg/mL |  |  |  |  |  |  |  |  | 
CCCCCCCCCCCCCOCCOCCOP(=O)([O-])OCC[n+]1ccccc1 [Example 28, 3,6-Dioxanonadecyl 2-pyridinioethyl phosphate] | 4 µg/mL | 25 µg/mL | 12.5 µg/mL | > 20 mm | 12.5 µg/mL | 25 µg/mL |  | 25 µg/mL | 6.25 µg/mL | MIC (Penicillium; [7]): 12.5 µg/mL; MIC [2]: 6.25 µg/mL
CCCCCCCCCCCCOCCOCCOCCOP(=O)(O)OCCN [Example 13, 3,6,9-Trioxaheneicosanyl 2-aminoethyl phosphate] | 4 µg/mL | 25 µg/mL | 50 µg/mL | 10 to 20 mm |  | 50 µg/mL | 25 µg/mL | 25 µg/mL | 100 µg/mL | MIC (Saccharomyces cerevisiae; [6]): 100 µg/mL; zone of inhibition at 3000 µg/mL (Hamigera): 10 to 20 mm; zone of inhibition at 3000 µg/mL (Rhodotorula): 10 to 20 mm
CCCCCCCCCCCCCCOCCOCCOP(=O)([O-])OCC[N+](C)(C)C [Example 26, 3,6-Dioxaeicosyl 2-trimethylammonioethyl phosphate] | 0.2 µg/mL |  | 6.25 µg/mL | 10 to 20 mm | 6.25 µg/mL | 12.5 µg/mL | 1.56 µg/mL | 50 µg/mL | 3.12 µg/mL | MIC (Saccharomyces cerevisiae; [6]): 6.25 µg/mL; MIC (Penicillium; [7]): 6.25 µg/mL; MIC (Aspergillus niger; Aspergillus niger): 12.5 µg/mL
CCCCCCCCCCCCOCCOCCOCCOCCOCCOP(=O)([O-])OCC[N+](C)(C)C [Example 3, 3,6,9,12,15-Pentaoxaheptacosyl 2-trimethylammonioethyl phosphate] | > 4 µg/mL |  |  | < 8 mm |  |  |  |  |  | 
CCCCCCCCCCCCOCCOCCOP(=O)([O-])OCC[N+](C)(C)C [Example 25, 3,6-Dioxaoctadecyl 2-trimethylammonioethyl phosphate] | 0.4 µg/mL | 25 µg/mL | 6.25 µg/mL | > 20 mm | 6.25 µg/mL | 25 µg/mL | 1.56 µg/mL | 25 µg/mL | 12.5 µg/mL | MIC (Saccharomyces cerevisiae; Saccharomyces cerevisiae): 12.5 µg/mL; MIC (Penicillium; Penicillium): 12.5 µg/mL
CCCCCCCCCCOCCOCCOP(=O)(O)OCCN [Example 22, 3,6-Dioxahexadecyl 2-aminoethyl phosphate] | 4 µg/mL |  |  | < 8 mm |  |  |  |  |  | 
CCCCCCCCCCCCOCCOCCOP(=O)(O)OCCN [Example 12, 2-[2-(Dodecyloxy)ethoxy]ethyl 2-aminoethyl phosphate] | 2 to 4 µg/mL | 25 µg/mL | 50 µg/mL | > 20 mm |  | 50 µg/mL | 25 µg/mL | 25 µg/mL | 100 µg/mL | MIC (Saccharomyces cerevisiae; [6]): 100 µg/mL; IC50 [3]: 5 µg/mL; zone of inhibition at 3000 µg/mL (Hamigera): 10 to 20 mm; zone of inhibition at 3000 µg/mL (Rhodotorula): 10 to 20 mm
CCCCCCCC/C=C\CCCCCCCCOCCOCCOP(=O)([O-])OCC[N+](C)(C)C [Example 7, 3,6-Dioxatetracos-15(Z)-enyl 2-trimethylammonioethyl phosphate] | 0.4 µg/mL | 25 µg/mL | 6.25 µg/mL | > 20 mm | 25 µg/mL | 25 µg/mL | 25 µg/mL |  | 3.12 µg/mL | IC50 [4]: 8 to 11 µg/mL; MIC (Saccharomyces cerevisiae; [6]): 12.5 µg/mL; IC50 [3]: 1 to 2 µg/mL; zone of inhibition at 3000 µg/mL (Hamigera): > 20 mm; zone of inhibition at 3000 µg/mL (Rhodotorula): 10 to 20 mm; deaths (CDF1 mice): no deaths; IC50 [5]: 2 to 3 µg/mL
CCCCCCCCCCCCOCCOCCOCCOCCOCCOP(=O)([O-])OCC[n+]1ccccc1 [Example 2, 3,6,9,12,15-Pentaoxaheptacosyl 2-pyridinioethyl phosphate] | > 4 µg/mL |  |  | 8 to 10 mm |  |  |  |  |  | zone of inhibition at 3000 µg/mL (Hamigera): < 8 mm; zone of inhibition at 3000 µg/mL (Rhodotorula): 10 to 20 mm
CCCCCCCCCCCCOCCOCCOP(=O)([O-])OCC[n+]1ccc2ccccc2c1 [Example 32, 3,6-Dioxaoctadecyl 2-isoquinolinioethyl phosphate] | 4 µg/mL |  |  | > 20 mm |  |  |  |  |  | 
CCCCCCCCCCOCCOCCOP(=O)([O-])OCC[N+](C)(C)C [Example 21, 3,6-Dioxahexadecyl 2-trimethylammonioethyl phosphate] | 2 µg/mL |  |  | 10 to 20 mm |  |  |  |  |  | 
CCCCCCCCCCCCCOCCOCCOP(=O)([O-])OCC[N+](C)(C)C [Example 29, 3,6-Dioxanonadecyl 2-trimethylammonioethyl phosphate] | ≤ 1 µg/mL |  |  | > 20 mm |  |  |  |  |  | 
CCCCCCCC/C=C\CCCCCCCCOCCOCCOP(=O)(O)OCCN [Example 5, 3,6-Dioxatetracos-15(Z)-enyl 2-aminoethyl phosphate] | 4 µg/mL |  |  | 8 to 10 mm |  |  |  |  |  | 
CCCCCCCCCCCCCCOCCOCCOP(=O)([O-])OCC[n+]1ccccc1 [Example 34, 3,6-Dioxaeicosyl 2-pyridinioethyl phosphate] | 4 µg/mL |  |  | 10 to 20 mm |  |  |  |  |  | 
CCCCCCCCCCCCCOCCOCCOP(=O)([O-])OCC[N+](C)(C)C [Ex.] |  | 25 µg/mL (≈ 55.1 µM) | 25 µg/mL (≈ 55.1 µM) |  | 12.5 µg/mL (≈ 27.6 µM) | 25 µg/mL (≈ 55.1 µM) | 3.12 µg/mL (≈ 6.88 µM) | 100 µg/mL (≈ 220 µM) | 6.25 µg/mL (≈ 13.8 µM) | MIC (Saccharomyces cerevisiae; [6]): 12.5 µg/mL (≈ 27.6 µM); MIC (Penicillium; [7]): 12.5 µg/mL (≈ 27.6 µM)
